Patent US10959981B2, “Composition for preventing or treating climacteric symptoms comprising soybean extract comprising coumestrol as an active ingredient” (AMOREPACIFIC CORPORATION, priority 2014, dated 2021)

How the values were obtained:
[1] = test system: climacteric mouse models induced by oophorectomy; assay: Skin thickness measured with calipers in oophorectomized mice; format: in vivo; conditions: oophorectomized hairless mice, 30 weeks old; extract 500 mg/kg, coumestrol 0.5 mg/kg in feed for 14 weeks; FIG. 2
Protocol: (§1) Female hairless mice weighing 26-27 g were used as experimental animals. The experimental animals were bred under a condition of 23±1° C., 40-60% humidity and 12-hour light/dark cycles. Basic feed and drinking water were provided ad libitum. On the previous day before blood taking, drinking water was provided only.
(§2) Oophorectomy was conducted aseptically after anesthetizing 15-week-old hairless mice and disinfecting with 70% ethanol. After incising skin tissue about 2-3 cm along the spinal cord below one lateral dorsal part, the muscle and peritoneum at the part where an ovary is located were incised by 1.5 cm to expose the ovary. After removing the ovary, the peritoneum, muscle and skin were sutured using silk suture. The ovary at the opposite side was also removed by the same method. […]
(§3) The experimental animals were divided into the control group (sham operation group) and an oophorectomy group. […] The administration dosage for the coumestrol administration group was determined such that the amount of coumestrol in the germinated and fermented bean was the same as that of the coumestrol 0.5 mg/kg administration group (content of coumestrol in the germinated and fermented bean extract=0.1%; 500 mg/kg×0.1%=0.5 mg/kg). […]
Skin thickness was measured for the same test group (30 weeks old) as that in Test Example 1 using calipers (HEPT, Cjina).

[2] = test system: climacteric mouse models induced by oophorectomy; assay: Bone density by dual-energy X-ray absorptiometry in oophorectomized mice; format: in vivo; conditions: oophorectomized hairless mice, 30 weeks old; feed for 14 weeks; extract 500 mg/kg, coumestrol 0.5 mg/kg; control group 0.1975, oophorectomy group 0.1821
Protocol: as §1
as §2, with “method. For a control group, a sham operation of incising the muscle and peritoneum but suturing without removal of the ovary was conducted.” for “method.”
as §3

[3] = test system: MMP-1; assay: MMP-1 expression in UV-irradiated 3D artificial skin; format: cell-based; conditions: 20 mJ UV, 0.1 ppm coumestrol or 100 ppm extract, relative to the non-UV-irradiated group as 100, UV-irradiated group 142.4%
Protocol: (§4) It is known that the skin in the climacteric period is vulnerable to skin irritation such as UV because of decreased skin thickness. 3D artificial skin was prepared and the effect of the germinated and fermented bean extract on the skin was tested after UV irradiation.
(§5) A matrix was prepared by mixing 2.64×10^5 fibroblasts in a collagen solution. After seeding 5×10^6 keratinocytes thereon, differentiation into artificial skin was induced by treating with 1.2 mM calcium. 2 weeks later, after irradiating 20 mJ UV on the cells and treating with 0.1 ppm coumestrol or 100 ppm germinated and fermented bean extract, the culture medium was recovered and the expression levels of MMP-1 and procollagen were measured in the same manner as in Test Example 5. The result is given in Table 2 relative to the non-UV-irradiated group as 100.

[4] = test system: procollagen; assay: Procollagen expression in UV-irradiated 3D artificial skin; format: cell-based; conditions: 20 mJ UV, 0.1 ppm coumestrol or 100 ppm extract, relative to the non-UV-irradiated group as 100, UV-irradiated group 68.7%
Protocol: as §4, §5

[5] = test system: climacteric mouse models induced by oophorectomy; assay: Body weight change of oophorectomy-induced climacteric mice over 14 weeks; format: in vivo; conditions: oophorectomized hairless mice; feed for 14 weeks; extract 500 mg/kg, coumestrol 0.5 mg/kg; FIG. 1
Protocol: Female hairless mice weighing 26-27 g were used as experimental animals. The experimental animals were bred under a condition of 23±1° C., 40-60% humidity and 12-hour light/dark cycles. Basic feed and drinking water were provided ad libitum. On the previous day before blood taking, drinking water was provided only. Oophorectomy was conducted aseptically after anesthetizing 15-week-old hairless mice and disinfecting with 70% ethanol. After incising skin tissue about 2-3 cm along the spinal cord below one lateral dorsal part, the muscle and peritoneum at the part where an ovary is located were incised by 1.5 cm to expose the ovary. After removing the ovary, the peritoneum, muscle and skin were sutured using silk suture. The ovary at the opposite side was also removed by the same method. For a control group, a sham operation of incising the muscle and peritoneum but suturing without removal of the ovary was conducted. After the surgical operation, the mice were allowed to recover for a week. […] The administration dosage for the coumestrol administration group was determined such that the amount of coumestrol in the germinated and fermented bean was the same as that of the coumestrol 0.5 mg/kg administration group (content of coumestrol in the germinated and fermented bean extract=0.1%; 500 mg/kg×0.1%=0.5 mg/kg). […]

## O=c1oc2cc(O)ccc2c2oc3cc(O)ccc3c12 [coumestrol]
[1]
  skin thickness: the same as that of the oophorectomy group
[2]
  Bone density: 0.1902 g/cm^2
[3]
  MMP-1: 122.8%
[4]
  Procollagen: 82.4%
[5]
  weight gain: significantly less than that of the oophorectomy group
